In US11339142B2, “Di-substituted pyrazole compounds for the treatment of diseases” (FGH BIOTECH, INC., priority 2016, dated 2022):

Tested on: PCSK9 expression
Test: Quantitative PCR (qPCR) inhibition assay, PCSK9 mRNA expression in Hep G2 cells
Assay type: cell-based
Details: Homo sapiens; HepG2 cells, 320 nM, 24 hours incubation, mRNA by qPCR; read-out: PCSK9 Inhibition Percentage (%) at 320 nM
Procedure: Hep G2 cells were obtained from ATCC and grown in DMEM supplemented with 5% FBS in a 5% CO2 incubator at 37° C. For the assay the cells were plated in 24 well plates at a concentration of 100,000 cells/well in DMEM with 5% FBS. The compounds were serially diluted in DMSO from 0.1 to 20 mM and then diluted 1:1000 in growth medium. The medium was added to the cells in duplicate 24 hours after plating. After 24 hours of incubation the RNA was isolated from the cells using the illustra RNAspin Mini kit (GE Healthcare). For the quantitative PCR the RNA was analyzed using the Power SYBR® Green PCR Master Mix (Applied Biosystems) and gene specific primers. The reaction was run on a StepOnePlus Real-Time PCR System (Thermo Fisher Scientific) and the instrument software was used to determine the Ct values. The fold change of mRNA expression relative to the vehicle control was calculated. Primer sequence was as follows: PCSK9, 5′-[…]-3′/5′-[…]-3′.
(§1) All data for Biological Examples 1a and 1b were measured in HepG2 cells. % inhibition of SCD1 expression, % inhibition of PCSK9 expression, and PCSK9 IC50 data are provided in Table 1. NA means the compound was not active at the concentration tested.

Row | SMILES | inhibition at 0.32 µM [%]
1 | CCCn1cc(-n2cc(-c3ccc(OCC(C)C)cc3Cl)cn2)ccc1=O [Example 8] | ≥ 40
2 | CCCn1cc(-n2cc(-c3ccc(OCC4(CO)CC4)nc3C)cn2)ccc1=O [Example 13] | ≥ 40
3 | CCCn1cc(-n2cc(-c3ccc(OCC(C)(C)CO)nc3C)cn2)ccc1=O [Example 14] | ≥ 40
4 | CCCn1cc(-n2cc(-c3ccc(OCC4(CO)COC4)nc3C)cn2)ccc1=O [Example 15] | ≥ 40
5 | CCCn1cc(-n2cc(-c3ccc(OCC4(CO)CCC4)nc3C)cn2)ccc1=O [Example 16] | ≥ 40
6 | CCCn1cc(-n2cc(-c3ccc(OCC4CC4)cc3Cl)cn2)ccc1=O [Example 26] | ≥ 40
7 | CCCn1cc(-n2cc(-c3ccc(OCC4CC4)c(F)c3)cn2)ccc1=O [Example 27] | < 10
8 | CCCn1cc(-n2cc(-c3cc(F)c(OCC4CC4)c(F)c3)cn2)ccc1=O [Example 28] | < 10
9 | CCCn1cc(-n2cc(-c3ccc(OCC4CC4)c(C)c3)cn2)ccc1=O [Example 29] | < 10
10 | CCCn1cc(-n2cc(-c3ccc(OCC4CC4)cc3F)cn2)ccc1=O [Example 30] | 10 to 40
11 | CCCn1cc(-n2cc(-c3ccc(OCC(C)C)cc3F)cn2)ccc1=O [Example 31] | 10 to 40
12 | CCCn1cc(-n2cc(-c3ccc(OC(CC)CC)cc3Cl)cn2)ccc1=O [Example 38] | ≥ 40
13 | CCCn1cc(-n2cc(-c3ccc(OCC4(CO)COC4)cc3Cl)cn2)ccc1=O [Example 39] | ≥ 40
14 | CCCn1cc(-n2cc(-c3ccc(OCC4(CO)CCC4)cc3Cl)cn2)ccc1=O [Example 49, 5-(4-(2-chloro-4-((1-(hydroxymethyl)cyclobutyl)methoxy)phenyl)-1H-pyrazol-1-yl)-1-propylpyridin-2(1H)-one] | ≥ 40
15 | CCCn1cc(-n2cc(-c3ccc(S(=O)(=O)C(C)C)nc3C)cn2)ccc1=O [Example 52, 5-(4-(6-(isopropylsulfonyl)-2-methylpyridin-3-yl)-1H-pyrazol-1-yl)-1-propylpyridin-2(1H)-one] | < 10
16 | CCCn1cc(-n2cc(-c3cnc(OC(C)C)nc3)cn2)ccc1=O [Example 53, 5-(4-(2-isopropoxypyrimidin-5-yl)-1H-pyrazol-1-yl)-1-propylpyridin-2(1H)-one] | < 10
17 | CCCn1cc(-n2cc(-c3cnc(S(=O)(=O)C(C)C)nc3)cn2)ccc1=O [Example 54, 5-(4-(2-(isopropylsulfonyl)pyrimidin-5-yl)-1H-pyrazol-1-yl)-1-propylpyridin-2(1H)-one] | < 10
18 | CCCn1cc(-n2cc(-c3ccc(S(=O)(=O)C4CCC4)cc3C)cn2)ccc1=O [Example 78] | ≥ 40
19 | CCCn1cc(-n2cc(-c3ccc(S(=O)(=O)C4CCC(F)(F)CC4)cc3C)cn2)ccc1=O [Example 79] | 10 to 40
20 | CCCn1cc(-n2cc(-c3ccc(S(=O)(=O)C4CC(F)(F)C4)cc3C)cn2)ccc1=O [Example 80] | 10 to 40
21 | CCCn1cc(-n2cc(-c3ccc(OCC4(CO)CC4)cc3C)cn2)ccc1=O [Example 81] | ≥ 40
22 | CCCn1cc(-n2cc(-c3ccc(OCC(F)(F)CO)nc3C)cn2)ccc1=O [Example 82] | ≥ 40

Same assay, conditions: Homo sapiens; HepG2 cells, 24 hours incubation, mRNA by qPCR

Row | SMILES | IC50 [nM]
23 | CCCn1cc(-n2cc(-c3ccc(OCC(C)C)cc3Cl)cn2)ccc1=O [Example 8] | 150 to 600
24 | CCCn1cc(-n2cc(-c3ccc(OCC4(CO)CC4)nc3C)cn2)ccc1=O [Example 13] | ≤ 150
25 | CCCn1cc(-n2cc(-c3ccc(OCC(C)(C)CO)nc3C)cn2)ccc1=O [Example 14] | ≤ 150
26 | CCCn1cc(-n2cc(-c3ccc(OCC4(CO)COC4)nc3C)cn2)ccc1=O [Example 15] | ≤ 150
27 | CCCn1cc(-n2cc(-c3ccc(OCC4(CO)CCC4)nc3C)cn2)ccc1=O [Example 16] | ≤ 150
28 | CCCn1cc(-n2cc(-c3ccc(OCC4(CO)COC4)cc3Cl)cn2)ccc1=O [Example 39] | 150 to 600
29 | CCCn1cc(-n2cc(-c3ccc(OCC4(CO)CCC4)cc3Cl)cn2)ccc1=O [Example 49, 5-(4-(2-chloro-4-((1-(hydroxymethyl)cyclobutyl)methoxy)phenyl)-1H-pyrazol-1-yl)-1-propylpyridin-2(1H)-one] | ≤ 150
30 | CCCn1cc(-n2cc(-c3ccc(S(=O)(=O)C4CCC4)cc3C)cn2)ccc1=O [Example 78] | ≤ 150
31 | CCCn1cc(-n2cc(-c3ccc(OCC4(CO)CC4)cc3C)cn2)ccc1=O [Example 81] | ≤ 150

Tested on: SCD1 expression
Test: Quantitative PCR (qPCR) inhibition assay, SCD1 mRNA expression in Hep G2 cells
Assay type: cell-based
Details: Homo sapiens, HepG2 cells, 24 hours incubation, mRNA by qPCR, read-out: SCD1 Inhibition Percentage (%) at 1 μM
Procedure: Hep G2 cells were obtained from ATCC and grown in DMEM supplemented with 10% FBS in a 5% CO2 incubator at 37° C. For the assay the cells were plated in 96 well plates at a concentration of 75,000 cells/well in DMEM with 5% FBS. The compounds were serially diluted in DMSO from 30 to 0.1 mM and then diluted 1:1000 in growth medium. The medium was added to the cells in duplicate 24 hours after plating. After 24 hours of incubation the RNA was isolated from the cells using the RNAqueous®-96 Total RNA Isolation Kit (Ambion). The eluted RNA was reverse transcribed using the Cells-to-Ct kit reverse transcriptase (Ambion). For the quantitative PCR the cDNA was analyzed using the Power SYBR® Green PCR Master Mix (Applied Biosystems) and gene specific primers. The reaction was run on an ABI7300 thermocycler and the instrument software was used to determine the Ct values. The fold change of mRNA expression relative to the vehicle control was calculated using the method by Livak. Primer sequence was as follows: SCD1, 5′-[…]-3′/5′-[…]-3′.
as §1

Row | SMILES | inhibition at 1 µM [%]
32 | CCCn1cc(-n2cc(-c3ccc(OC4CCCC4)nc3C)cn2)ccc1=O [Example 1, 5-(4-(6-(cyclopentyloxy)-2-methylpyridin-3-yl)-1H-pyrazol-1-yl)-1-propylpyridin-2(1H)-one] | ≥ 40
33 | CCCn1cc(-n2cc(-c3ccc(OC(C)C)nc3C)cn2)ccc1=O [Example 2] | ≥ 40
34 | CCCn1cc(-n2cc(-c3ccc(OC(F)(F)F)cc3Cl)cn2)ccc1=O [Example 4] | ≥ 40
35 | CCCn1cc(-n2cc(-c3ccc(OC4CCC4)nc3C)cn2)ccc1=O [Example 7] | ≥ 40
36 | CCCn1cc(-n2cc(-c3ccc(OC(C)C4CC4)nc3C)cn2)ccc1=O (centres unmarked) [Example 11] | ≥ 40
37 | CCCn1cc(-n2cc(-c3ccc(OC4CC4)nc3C)cn2)ccc1=O [Example 12] | 10 to 40
38 | CCCn1cc(-n2cc(-c3ccc(S(=O)(=O)CC4CC4)cc3Cl)cn2)ccc1=O [Example 19] | ≥ 40
39 | CCCn1cc(-n2cc(-c3ccc(S(=O)(=O)C(CC)CC)cc3Cl)cn2)ccc1=O [Example 20] | ≥ 40
40 | CCCn1cc(-n2cc(-c3ccc(S(=O)(=O)C(C)C)cc3F)cn2)ccc1=O [Example 21] | ≥ 40
41 | CCCn1cc(-n2cc(-c3ccc(S(=O)(=O)C(C)C)cc3)cn2)ccc1=O [Example 25] | ≥ 40
42 | CCCn1cc(-n2cc(-c3ccc(OCC4(CO)CC4)cc3Cl)cn2)ccc1=O [Example 32] | ≥ 40
43 | CCCn1cc(-n2cc(-c3ccc(OCCCO)cc3Cl)cn2)ccc1=O [Example 33] | ≥ 40
44 | CCCn1cc(-n2cc(-c3ccc(OC(C)C4CC4)cc3Cl)cn2)ccc1=O (centres unmarked) [Example 34] | ≥ 40
45 | CCCn1cc(-n2cc(-c3ccc(O[C@@H](C)CC)cc3Cl)cn2)ccc1=O [Example 35] | ≥ 40
46 | CCCn1cc(-n2cc(-c3ccc(O[C@H](C)CC)cc3Cl)cn2)ccc1=O [Example 36] | ≥ 40
47 | CCCn1cc(-n2cc(-c3ccc(OC(C)CO)cc3Cl)cn2)ccc1=O (centres unmarked) [Example 37] | ≥ 40
48 | CCCn1cc(-n2cc(-c3ccc(OC(C)C)cc3Cl)cn2)ccc1=O [Example 40] | 10 to 40
49 | CCCn1cc(-n2cc(-c3ccc(O[C@H](C)CC)cc3)cn2)ccc1=O [Example 41] | ≥ 40
50 | CCCn1cc(-n2cc(-c3ccc(OC(C)CO)cc3)cn2)ccc1=O (centres unmarked) [Example 42] | 10 to 40
51 | CCCn1cc(-n2cc(-c3ccc(OC)cc3Cl)cn2)ccc1=O [Example 45, 5-(4-(2-chloro-4-methoxyphenyl)-1H-pyrazol-1-yl)-1-propylpyridin-2(1H)-one] | 10 to 40
52 | CCCn1cc(-n2cc(-c3ccc(OC)cc3)cn2)ccc1=O [Example 46, 5-(4-(4-methoxyphenyl)-1H-pyrazol-1-yl)-1-propylpyridin-2(1H)-one] | 10 to 40
53 | CCCn1cc(-n2cc(-c3ccc(OC(C)CCO)cc3Cl)cn2)ccc1=O (centres unmarked) [Example 47, 5-(4-(2-chloro-4-((4-hydroxybutan-2-yl)oxy)phenyl)-1H-pyrazol-1-yl)-1-propylpyridin-2(1H)-one] | ≥ 40
54 | CCCn1cc(-n2cc(-c3ccc(OCC(C)(C)CO)cc3Cl)cn2)ccc1=O [Example 48, 5-(4-(2-chloro-4-(3-hydroxy-2,2-dimethylpropoxy)phenyl)-1H-pyrazol-1-yl)-1-propylpyridin-2(1H)-one] | ≥ 40
55 | Cc1nc(OC2CCCC2)ccc1-c1cnn(-c2ccc(=O)n(CC(C)C)c2)c1 [Example 50, 5-(4-(6-(cyclopentyloxy)-2-methylpyridin-3-yl)-1H-pyrazol-1-yl)-1-isobutylpyridin-2(1H)-one] | ≥ 40
56 | CCCn1cc(-n2cc(-c3ccc(S(=O)(=O)CC)cc3)cn2)ccc1=O [Example 51, 5-(4-(4-(ethylsulfonyl)phenyl)-1H-pyrazol-1-yl)-1-propylpyridin-2(1H)-one] | ≥ 40
